Measured values: publication PMC4368859 (International Journal of Neuropsychopharmacology, 2014)
“And” between values parts separate entries of the source, which are not always exact repeats. Equal entries are not always repeated.

Key:
[1] = pKa and ionised/neutral fraction of the drug as a function of pH; assay type: physicochemical
[2] = in water; ref Lu et al., 2007; cited from earlier work
mouse luminal BBB = assay: cocaine brain transport by in situ mouse carotid perfusion; assay type: in vivo; settings: for Brain transport (K in): 9nM; for decrease in [^3H]-cocaine transport by unlabeled cocaine: unlabeled cocaine 10mM, mouse BBB
hCMEC/D3 cells = assay: cocaine uptake in hCMEC/D3 cells; assay type: in vitro ADME, human
[3] = system: [^3H]-cocaine uptake in hCMEC/D3 cells; assay type: cell-based, human
[4] = system: cocaine transporter in hCMEC/D3 cells; assay: trans-stimulation of [^3H]-cocaine exit from hCMEC/D3 cells; settings: 10 µM unlabeled compound in KH buffer after 5 minutes loading; vs control
[5] = ref Gatley et al., 1994; Chow et al., 2001; cited from earlier work
OCTs = assay: MPP+ transport in hCMEC/D3 cells; assay type: cell-based, human; settings: TEA 2mM, data not shown
[6] = in vivo, concentrations less than K m

**Q.** Which positively charged fraction ([1]; pH 7.4) does the source give for `COC(=O)[C@H]1[C@@H](OC(=O)c2ccccc2)C[C@@H]2CC[C@H]1N2C` [cocaine, (−)-Cocaine] here?
**A.** The positively charged fraction was 94%.

**Q.** And the uncharged fraction ([1]; pH 7.4)?
**A.** Its uncharged fraction is 6%.

**Q.** And the neutral fraction ([1]; pHe 5.40)?
**A.** The neutral fraction was 0.06%.

**Q.** What about the cationic form ([1]; pHe 5.40 or 6.40) of the same compound?
**A.** The cationic form was greater than 99.4%.

**Q.** And the neutral fraction ([1]; pHe 6.40)?
**A.** Its neutral fraction is 0.6%.

**Q.** What about the neutral fraction ([1]; pHe 7.40) of the same compound?
**A.** The neutral fraction was 5.9%.

**Q.** What about the “basic pK a” value [2] of the same compound?
**A.** The value was 8.6.

**Q.** What about the “Brain transport (K in)” value (mouse luminal BBB; C57Bl/6 mice, 60 seconds, Krebs-carbonate pH 7.40) of the same compound?
**A.** The value was 19 ± 2 µL/s/g.

**Q.** And the “Brain transport (K in)” value (mouse luminal BBB; DBA mice, 60 seconds, Krebs-carbonate pH 7.40)?
**A.** The value was 21 ± 2 µL/s/g.

**Q.** And the “Brain transport (K in)” value (mouse luminal BBB; Fvb [Oct1,Oct2(−/−)] mice, 60 seconds)?
**A.** Its value is 19 ± 2 µL/s/g.

**Q.** And the “Brain transport (K in)” value (mouse luminal BBB; Fvb wild-type mice, 60 seconds, Krebs-carbonate pH 7.40)?
**A.** Its value is 20 ± 2 µL/s/g.

**Q.** What about the “Brain transport (K in)” value (mouse luminal BBB; Swiss mice, 60 seconds, Krebs-carbonate pH 7.40) of the same compound?
**A.** The value was 20 ± 2 µL/s/g.

**Q.** And the “K passive (passive diffusion)” value (mouse luminal BBB; Swiss mice, pHe 7.40)?
**A.** The value was 4.5±1.0 µL/sec/g and ~ 4.5 µL/sec/g.

**Q.** And the “apparent K m of carrier-mediated brain flux” value (mouse luminal BBB; Swiss mice, pHe 7.40)?
**A.** Its value is 4500 ± 1800 µM.

**Q.** And the “V max of carrier-mediated brain flux” value (mouse luminal BBB; Swiss mice, pHe 7.40, per g of brain)?
**A.** Its value is 127.2 ± 34.5 nmol/s/g.

**Q.** And the total brain extraction (mouse luminal BBB; compared with the vascular flow marker diazepam)?
**A.** Its total brain extraction is “about 47%”.

**Q.** What about the “concentration at which passive diffusion and carrier-mediated flux are equal” value (mouse luminal BBB; from Equation 7) of the same compound?
**A.** The value was “around 24 mM”.

**Q.** What about the “carrier-mediated influx relative to passive diffusion” value (mouse luminal BBB; [6]) of the same compound?
**A.** The value was 3.4 times.

**Q.** And the carrier-mediated transport rate (mouse luminal BBB; [6])?
**A.** The carrier-mediated transport rate was ~ 15.5 µL/sec/g.

**Q.** And the “increase in brain transport vs pHe 5.40” value (mouse luminal BBB; mice, 60 seconds, pHe 6.40)?
**A.** The value was 4.7 fold.

**Q.** And the “increase in brain transport vs pHe 5.40” value (mouse luminal BBB; mice, 60 seconds, pHe 7.40)?
**A.** Its value is 16.9 fold.

**Q.** And the “reduction in brain transport by NH4Cl pulse” value (mouse luminal BBB; mice, NH4Cl 30mM, pHe 7.40, 60 seconds)?
**A.** The value was 1.8 fold.

**Q.** What about the “decrease in brain transport with HEPES-buffer vs Krebs-carbonate buffer” value (mouse luminal BBB; mice, carbonate-free HEPES buffer) of the same compound?
**A.** Its value is 1.8 fold.

**Q.** And the “increase in K in with mannitol perfusion buffer vs Krebs-carbonate” value (mouse luminal BBB; mice, sodium-free and chloride-free buffer)?
**A.** Its value is 1.35 fold.

**Q.** And the “effect of lithium (Na+-free) buffer on brain transport” value (mouse luminal BBB; mice, vs regular Krebs-carbonate buffer)?
**A.** The value was “no significant change”.

**Q.** What about the “net brain transport rate (K in) under unsaturated conditions” value (mouse luminal BBB; pharmacological concentration range) of the same compound?
**A.** The value was “about 20 µL/sec/g”.

**Q.** And the “decrease in [^3H]-cocaine transport by unlabeled cocaine” value (“decrease in [^3H]-cocaine transport” for short) (mouse luminal BBB; pHe 5.40)?
**A.** The value was 1.8 fold.

**Q.** And the “decrease in [^3H]-cocaine transport” value (mouse luminal BBB; pHe 6.40)?
**A.** Its value is 2.0 fold.

**Q.** What about the “decrease in [^3H]-cocaine transport” value (mouse luminal BBB; pHe 7.40) of the same compound?
**A.** The value was 1.9 fold.

**Q.** And the “K m of carrier-mediated uptake” value (hCMEC/D3 cells; KH buffer pH 7.40, 37°C, 5 minutes, 0.05–10mM)?
**A.** Its value is 123 ± 23 µM.

**Q.** What about the “increase in uptake after NH4Cl prepulse (acidification)” value (hCMEC/D3 cells; NH4Cl 30mM prepulse) of the same compound?
**A.** Its value is 1.85 fold.

**Q.** What about the “effect of NH4Cl pulse (alkalinization) on uptake” value (hCMEC/D3 cells; NH4Cl 30mM, pHe 7.40) of the same compound?
**A.** Its value is “significantly decreased”.

**Q.** And the “K passive (passive diffusion)” value (hCMEC/D3 cells; pH 7.40)?
**A.** The value was 1.09 ± 0.09 µL/min/mg.

**Q.** And the “increase in uptake vs pHe 5.40” value (hCMEC/D3 cells; pHe 6.40)?
**A.** The value was 2.5 fold.

**Q.** What about the “increase in uptake vs pHe 5.40” value (hCMEC/D3 cells; pHe 7.40) of the same compound?
**A.** Its value is 4.6 fold.

**Q.** What about the “transport in NMDG-buffer relative to KH buffer control” value (hCMEC/D3 cells; sodium replaced, pHe 7.40, 5 minutes, control 100.0±9.0%) of the same compound?
**A.** Its value is 97.0±9.7%.

**Q.** With `COc1ccc2c3c1O[C@H]1[C@@H](O)C=C[C@H]4[C@@H](C2)N(C)CC[C@@]341` [Codeine] as the compound, how does the “Relative uptake of [^3H]-cocaine” value [3] read?
**A.** Its value is 63.4±5.0 %.

**Q.** For `CN1CCC[C@H]1c1cccnc1` [Nicotine], which “trans-stimulation of [^3H]-cocaine exit (trans-efflux zero)” value (from here on “trans-stimulation of [^3H]-cocaine exit”) [4] is on record?
**A.** Its value is “strongly stimulated”.

**Q.** With `CN1[C@H]2CC[C@@H]1[C@@H](C(=O)O)[C@@H](OC(=O)c1ccccc1)C2` [Benzoylecgonine] as the compound, how does the “trans-stimulation of [^3H]-cocaine exit” value [4] read?
**A.** The value was “lack of a trans-stimulation effect”.

**Q.** And the brain uptake [5]?
**A.** Its brain uptake is “no significant brain uptake”.

**Q.** And the “Relative uptake of [^3H]-cocaine” value [3]?
**A.** Its value is 104.1±3.0% and 94.2±14.9% and 72.0±11.4 %.

**Q.** With `CCCC(C(=O)c1ccc2c(c1)OCO2)N1CCCC1` (stereo not drawn) [MDPV, 3,4-methylenedioxypyrovalerone] as the compound, how does the “trans-stimulation of [^3H]-cocaine exit” value [4] read?
**A.** Its value is “strongly stimulated”.

**Q.** What about the “Relative uptake of [^3H]-cocaine” value [3] of the same compound?
**A.** The value was 18.1±0.4 %.

**Q.** Which “Relative uptake of [^3H]-cocaine” value [3] does the source give for `C=CCN1CC[C@]23c4c5ccc(O)c4O[C@H]2C(=O)CC[C@@]3(O)[C@H]1C5` [Naloxone] here?
**A.** Its value is 28.3±0.9 %.

**Q.** With `CC[N+](CC)(CC)CC` [TEA, tetraethylammonium] as the compound, how does the “effect on MPP^+ transport” value (OCTs) read?
**A.** Its value is “significantly inhibited”.

**Q.** What about the “Relative uptake of [^3H]-cocaine” value [3] of the same compound?
**A.** The value was 120.6±9.8%.

**Q.** With `COc1ccc(CCN(C)CCCC(C#N)(c2ccc(OC)c(OC)c2)C(C)C)cc1OC` (stereo not drawn) [Verapamil] as the compound, how does the “Relative uptake of [^3H]-cocaine” value [3] read?
**A.** The value was 3.7±0.2 %.

**Q.** With Ecgonine as the compound, how does the “Relative uptake of [^3H]-cocaine” value [3] read?
**A.** Its value is 103.9±8.7% and 93.2±2.5% and 75.3±5.0 %.
